Data published in the NIST ThermoML archive (doi:10.1021/je5001523).

Experiment: mn = molality of the nth substance listed, in mol/kg
Details: 101 kPa, Liquid; for viscosity: Capillary tube (Ostwald / Ubbelohde) method

[Cl-].[Li+] [lithium chloride] + O
Details | mass density, 288.15 K [kg/m3] | mass density, 298.15 K [kg/m3] | mass density, 308.15 K [kg/m3] | mass density, 318.15 K [kg/m3] | viscosity, 288.15 K [mPa·s] | viscosity, 298.15 K [mPa·s] | viscosity, 308.15 K [mPa·s] | viscosity, 318.15 K [mPa·s]
m1 = 0.5 | 1012.05 | 1009.46 | 1006.13 | 1002.07 | 1.212 | 0.94 | 0.76 | 0.629
m1 = 1 | 1023.76 | 1020.94 | – | 1012.4 | 1.288 | 1.002 | 0.802 | 0.661
m1 = 2 | 1045.1 | 1041.17 | 1036.24 | 1031.32 | 1.444 | 1.112 | 0.882 | 0.724
m1 = 3 | 1062.67 | 1057.69 | 1051.58 | 1047.47 | 1.586 | 1.229 | 0.962 | 0.785
